Measured values from patent publication US20200055871A1, “ACTIVATORS OF THE RETINOIC ACID INDUCIBLE GENE "RIG-I" PATHWAY AND METHODS OF USE THEREOF” (Kineta Immuno-Oncology LLC, priority 2018, published 2020).

How the values were obtained:
[1] = test system: IRF3 signaling pathway in THP1-Lucia™ ISG cells; experiment: THP1-Lucia ISG reporter assay: induction of IRF3-dependent gene expression (secreted luciferase); assay type: cell-based, human; conditions: PMA-differentiated cells, 18 h after stimulation
Method in brief: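 PMA-differentiated THP-1 reporter cells (ISRE/ISG54 promoter driving secreted luciferase), plus CRISPR IRF3−/− line, treated with compounds at 5–20 μM (mostly 10 μM). Luciferase measured 18 h later; values are fold increase over untreated background, binned from <2.4 to ≥40.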

[2] = test system: IRF3-deficient THP1-Lucia™ ISG IRF3−/− cells; experiment: THP1-Lucia ISG IRF3−/− reporter assay (IRF3-deficient control cells); assay type: cell-based, human; conditions: compound 5 to 20 μM, 18 h
Procedure: The promoter was comprised of five IFN-stimulated response elements (ISRE) fused to an ISG54 minimal promoter which is unresponsive to NF-kB or AP-1 pathways. […] The IRF3-deficient THP1-Lucia™ ISG IRF3−/−reporter cell line was generated by CRISPR technology from the parent THP1-Lucia™ ISG reporter cell line.
THP1-Lucia™ ISG cells and IRF3-deficient THP1-Lucia™ ISG IRF3−/−cells were differentiated with PMA (100 ng/ml) and stimulated with compounds at the indicated concentrations (5 to 20 μM), positive control, or not treated (background). Luciferase secretion was quantified using the QUANTI-Luc luciferase assay system (InvivoGen) 18 h after stimulation. Data are shown as fold increase luciferase activity over background in Table 7 and represent the IRF3-dependent ISG54 promoter activity by the THP1-Lucia™ ISG cells in response to compounds. […] The fold increase of compounds (10 μM, *20 μM, **5 μM) induced IRF3 dependent luciferase activity is indicated as follows: “≠” indicates less than 2.4 fold increase; “+” indicates a 2.4-4.9 fold increase; “++” indicates a 5-9.9 fold increase; “+++” indicates a 10-19 fold increase; “++++” indicates a 20-39 fold increase; “+++++” indicates greater than or equal to 40 fold increase.

[3] = test system: murine CT26 colon carcinoma cells; experiment: RIG-I dependent CXCL10 secretion by CT26 cells (ELISA); assay type: cell-based; conditions: supernatant 24 h after stimulation
Method in brief: (§1)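 CT26 murine colon carcinoma cells, parental or CRISPR RIG-I−/−, seeded and grown 24 hr at 37° C, then treated with compounds at 10 μM, or at 5 or 20 μM for some. Secreted CXCL10 measured by ELISA in supernatants 24 h after treatment and reported in pg/mL bands.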

[4] = test system: RIG-I deficient CT26 RIG-I−/− cells; experiment: CXCL10 secretion by RIG-I deficient CT26 RIG-I−/− cells (ELISA); assay type: cell-based, murine; conditions: compound 5 to 20 μM, 24 h; further: key: −: about 0 pg/mL of CXCL10, or below the level of quantitation
Method in brief: as §1

Structure (SMILES)	fold increase of IRF3-dependent luciferase activity over background, THP1 ISG ([1]; 10 μM compound)	fold increase of luciferase activity, THP1 ISG IRF3−/− [2]	CXCL10 secretion, CT26 ([3]; 10 μM compound)	CXCL10 secretion, CT26 RIG-I−/− [4]	fold increase of IRF3-dependent luciferase activity over background, THP1 ISG ([1]; 20 μM compound (*))	CXCL10 secretion, CT26 ([3]; 20 μM compound (*))
O=C(Nc1cc2ccc3scnc3c2s1)c1cc2ccccc2cc1OCCCCN1CCOCC1 [Example 54, N-{5,12-dithia-3-azatricyclo[7.3.0.0^2,^6]dodeca-1,3,6,8,10-pentaen-11-yl}-3-[4-(morpholin-4-yl)butoxy]naphthalene-2-carboxamide]	+++ (a 10-19 fold increase)	− (less than 0.5 fold above baseline was considered below the level of quantitation)	++++ (800 to 1599 pg/mL)	−		
O=C(Nc1nc2ccc3scnc3c2o1)c1cc2ccccc2cc1OCCN1CCOCC1 [Example 58, 3-[2-(morpholin-4-yl)ethoxy]-N-{3-oxa-10-thia-5,12-diazatricyclo [7.3.0.0^2,^6]dodeca-1,4,6,8,11-pentaen-4-yl}naphthalene-2-carboxamide]	+ (a 2.4-4.9 fold increase)	− (less than 0.5 fold above baseline was considered below the level of quantitation)	+ (100-199 pg/mL)	−		
O=C(Nc1nc2ccc3occc3c2s1)c1cc2ccccc2cc1OCCN1CCOCC1 [Example 51, 3-[2-(morpholin-4-yl)ethoxy]-N-{10-oxa-3-thia-5-azatricyclo[7.3.0.0^2,^6]dodeca-1,4,6,8,11-pentaen-4-yl}naphthalene-2-carboxamide]	+++ (a 10-19 fold increase)	− (less than 0.5 fold above baseline was considered below the level of quantitation)	+++ (400-799 pg/mL)	−		
O=C(Nc1nc2ccc3sccc3c2s1)c1cc2ccccc2cc1OCCCCN1CCOCC1 [Example 49, N-{3,10-dithia-5-azatricyclo[7.3.0.0^2,^6]dodeca-1,4,6,8,11-pentaen-4-yl}-3-[4-(morpholin-4-yl)butoxy]naphthalene-2-carboxamide]	+++ (a 10-19 fold increase)	− (less than 0.5 fold above baseline was considered below the level of quantitation)	++++ (800 to 1599 pg/mL)	−		
O=C(Nc1cc2ccc3scnc3c2s1)c1cc2ccsc2cc1OCCCCN1CCOCC1 [Example 66, N-{5,12-dithia-3-azatricyclo[7.3.0.0^2,^6]dodeca-1,3,6,8,10-pentaen-11-yl}-6-[4-(morpholin-4-yl)butoxy]-1-benzothiophene-5-carboxamide]	+ (a 2.4-4.9 fold increase)	− (less than 0.5 fold above baseline was considered below the level of quantitation)	+++++ (greater than or equal to 1600 pg/ml)	−		
O=C(Nc1nc2ccc3scnc3c2o1)c1cc2ccccc2cc1OCCCCN1CCOCC1 [Example 59, 3-[4-(morpholin-4-yl)butoxy]-N-{3-oxa-10-thia-5,12-diazatricyclo [7.3.0.0^2,^6]dodeca-1,4,6,8,11-pentaen-4-yl}naphthalene-2-carboxamide]	++ (a 5-9.9 fold increase)	− (less than 0.5 fold above baseline was considered below the level of quantitation)	+++++ (greater than or equal to 1600 pg/ml)	−		
O=C(Nc1nc2c(ccc3scnc32)[nH]1)c1ccc2ccccc2c1 [Example 48, N-{5-thia-3,10,12-triazatricyclo[7.3.0.0^2,^6]dodeca-1,3,6,8,11-pentaen-11-yl}naphthalene-2-carboxamide]		− (less than 0.5 fold above baseline was considered below the level of quantitation)		−	++* (a 5-9.9 fold increase)	++++* (800 to 1599 pg/mL)
